Experimental data as given in patent US20230310352A1, “NOVEL COMPOSITIONS AND METHODS FOR THE TREATMENT OF LUNG FIBROSIS” (LAURENT PHARMACEUTICALS INC., priority 2020, published 2023).
Entries after “also recorded” stand apart in the source; their conditions may differ.

Columns and labels:
[1] = tested on: bleomycin-induced lung fibrosis; assay: Intratracheal bleomycin mouse model of pulmonary fibrosis (28-day model); type: in vivo, C57BL/6N mice; details: Day 28; oral once daily Day 7 to Day 28; fenretinide 10 mg/kg (as LAU-7b SDI), pirfenidone 100 mg/kg
From the text: Oral administration of a solid, amorphous dispersion formulation of fenretinide (LAU-7b SDI) was provided as a treatment for reduction of pulmonary fibrosis, in a mouse model of lung fibrosis induced via a single intratracheal administration of bleomycin, for 21 days. The LAU-7b SDI formulation was obtained by spray drying and contains fenretinide in amorphous form in a solid dispersion comprising a matrix polymer, based on the following formula: 40% fenretinide, 59.6% povidone (KOLLIDON® 30), 0.24% butylated hydroxyanisole (BHA) and 0.16% butylated hydroxytoluene (BHT).
Male C57BL/6N mice from Charles River Laboratories, 10-12 weeks of age, weighing around 20-25 g, at the time of their enrolment, received 50 μL of bleomycin sulfate (2.0 mg/kg) by a single intratracheal instillation on Day 1 of the study to induce lung fibrosis. The sham group received an equivalent volume of 0.9% saline. On Day 7 postbleomycin instillation, the animals were randomized in groups of animals based on their body weight loss and enhanced pause airway resistance estimate (PenH value), while the sham group had 6 mice. Oral dosing by gavage (10 mL/kg) with the vehicle (sham and BLM control groups), the test articles (fenretinide 10 mg/kg), and the reference compound (pirfenidone 100 mg/kg) were administered once daily starting from Day 7 to Day 28. Two hours following the last dose on Day 28, all mice were sacrificed, the lungs of each mouse harvested, flushed with 0.9% NaCl and inflated with 10% neutral buffered formalin solution. After embedding and mounting of the lung tissue (transversal slices of 5 μm thickness), the histology slides were stained with hematoxylin/eosin for the Ashcroft score evaluation by a treatment-blinded pathologist and with Sirius red staining for automated fibrosis quantification (Biocelvia, France).
The key endpoints evaluated in this study were Ashcroft score, pulmonary foci and collagen content obtained by histological assessment of the lung tissue at the end of the study. Statistical analysis was made on normally distributed data by one-way ANOVA followed by multiple comparisons (Fisher's LSD post hoc test) to assess the difference between the groups, using Graph Pad Prism Software version 8.0 (San Diego, CA, USA). Differences were considered statistically significant when P values were p<0.05 (*), or p<0.01 (**) or p<0.001 (***).
Ashcroft scale for the evaluation of bleomycin-induced lung fibrosis is the analysis of stained histological samples by visual assessment. The Ashcroft score was assessed in lung tissue collected on Day 28 by treatment-blinded pathologist on H&E stained lung tissue histology slides (3 cross sections/animal) and using the modified Ashcroft scale. Briefly, each lung section was scanned at a magnification of x100 (H&E staining), read by a blinded examiner, and graded from 0 (normal lung) to 8 (total fibrotic obliteration of the field). Criteria for grading lung fibrosis in Ashcroft scale are as follows: Grade 0=normal lung; Grade 1=minimal fibrous thickening of alveolar or bronchiolar walls; Grade 3=moderate thickening of walls without obvious damage to lung architecture; Grade 5=increased fibrosis with definitive damage to lung structure and formation of fibrous bands or small fibrous masses; Grade 7=severe distortion of structure and large fibrous area; Grade 8=total fibrous obliteration of lung fields. The mean value of the grades obtained for each of the three sections was used as the Ashcroft score. Ashcroft score, using the modified scale, is a reliable and reproducible method of visual quantification of bleomycin induced lung fibrosis in H&E stained histological lung sections based on description of the general morphology of alveolar septa and lung structure. […]

[2] = tested on: human lung microtissues; assay: Immunostaining of fibrotic markers (α-SMA, pro-collagen type 1) in TGF-β1 fibrosis-induced 3D lung microtissues; type: cell-based
From the text: To confirm the findings of the NHLF cells, the effects of fenretinide administration was observed on a newly developed in vitro model arrays of 3D microtissues that are suspended over multiple flexible micropillars. Progression of lung fibrosis is characterized by stiffening of the membranous tissue that makes up the alveolar air sacs, caused by the accumulation of highly contractile and collagen-producing myofibroblasts. To model the physio-pathological characteristics of lung fibrosis in vitro, different experimental systems have been developed. Planar 2D culture-based assays offer multiparameter readout of fibrotic cellular markers, but they have very limited capacity to measure or reproduce tissue mechanics. In order to recapitulate dynamic changes in tissue mechanics during fibrogenesis, a newly validated membranous human lung microtissues array was used, that models key biomechanical events occurred during lung fibrogenesis, including progressive stiffening and contraction of alveolar tissue, decline in alveolar tissue compliance, and traction force-induced bronchial dilation. This new 3D array of membranous lung microtissues model of lung fibrosis had been validated using two FDA-approved antifibrosis drugs, pirfenidone and nintedanib. This model was further extended to larger lung tissue arrays, to mimic the traction on alveoli as a model of bronchiectasis. (Asmani M. et al, 2018, Nature Com, 9:2066)
The lung microtissue chip system used is based on bio-MEMS technology that can assemble 3D cell-populated submillimeter microtissues in arrays of polydimethylsiloxane (PDMS) microwells. In each microwell, human lung fibroblasts or epithelial cells spontaneously contract and assemble the matrix proteins, such as collagen, into microtissues that anchor on top of an array of micropillars. The flexible micropillars serve as in situ force sensors that can report the contractile force generated by the tissue. […]
These observations are further described in Table 1, which presents fenretinide induced reduction of alpha smooth muscle actin (α-SMA) and pro-collagen expression and contractile forces induced by TGF-β1 in lung microtissue in preventative and therapeutic treatment measured as a percentage.

[3] = tested on: Normal human lung fibroblast cells (NHLF cells, ATCC CRL-7000); assay: COL1A1 mRNA transcript by qRT-PCR after TGF-β1 exposure in NHLF; type: cell-based; details: TGF-β1 2 ng/mL + fenretinide 1, 2, 3, 4 μM, 3 days
Experimental: NHLF cells were incubated for 3 days at 37° C. and treated with TGF-β1 (2 ng/mL) or TGF-β1 (2 ng/mL)+Fenretinide (1, 2, 3, 4 μM). At the end of the 3 day-treatment period, media was removed using a vacuum pump and total RNA was isolated using the TriReagent protocol (BioShop) and cDNA was obtained by reverse transcription using the SUPERSCRIPT® VILO®. COL1A1 transcript levels were determined by qRT-PCR using the Fast SyBR Master Mix and specific probes, and quantified following the ΔΔCT, normalized to PUM-1 expression as internal control. The experiments were performed in quadruplicate.

[4] = preventative treatment, 2 μM, 6 days
[5] = preventative treatment, 4 μM, 6 days
[6] = preventative, co-administered with TGF-β1 5 ng/ml for 6 days, 2 μM and 4 μM
[7] = therapeutic treatment, added day 3 to day 6, 2 μM
[8] = therapeutic treatment, added day 3 to day 6, 4 μM

CC1=C(/C=C/C(C)=C/C=C/C(C)=C/C(=O)Nc2ccc(O)cc2)C(C)(C)CCC1 [fenretinide, 4-hydroxyphenyl retinamide]
Ashcroft score vs BLM control [1]: reduced significantly (p<0.05)
percentage of collagen content in lung tissue, automated Sirius red analysis, vs BLM control [1]: significantly reduced
percentage of pulmonary foci (fibrotic tissue), automated Sirius red analysis, vs BLM control [1]: significant reduction
pro-collagen, reduction of expression induced by TGF-β1, percentage change [2, 4]: 88.0%
α-SMA, reduction of expression induced by TGF-β1, percentage change [2, 4]: 45.0%
pro-collagen, reduction of expression induced by TGF-β1, percentage change [2, 5]: 81.0%
α-SMA, reduction of expression induced by TGF-β1, percentage change [2, 5]: 37.0%
expression of pro-collagen type 1 (fluorescent intensity) [2, 6]: increasingly inhibited by increasing fenretinide concentrations
expression of α-SMA (fluorescent intensity) [2, 6]: increasingly inhibited by increasing fenretinide concentrations
pro-collagen, reduction of expression induced by TGF-β1, percentage change [2, 7]: 39.0%
α-SMA, reduction of expression induced by TGF-β1, percentage change [2, 7]: 56.0%
pro-collagen, reduction of expression induced by TGF-β1, percentage change [2, 8]: 58.0%
α-SMA, reduction of expression induced by TGF-β1, percentage change [2, 8]: 72.0%
induction of fibrotic marker COL1A1 gene expression (qRT-PCR) [3]: attenuates, in a dose-dependent manner; also recorded: dose-dependent attenuation
